Results on one compound are retold here after the NIST ThermoML archive (doi:10.1016/j.jct.2006.10.006).

Numbers after ± are expanded uncertainties.

Data set [1] in a line: Molar enthalpy of transition or fusion. The conditions noted are these: Crystal; DSC.
The nature of data set [2]: molar enthalpy of vaporization or sublimation. Conditions: 298.15 K; Crystal; Static calorimetry.
The conditions of data set [3]: Crystal 1; DTA.

`CCOC(=S)NC(=O)c1cccs1` [carbamothioic acid, N-(2-thienylcarbonyl)-, O-ethyl ester]: in data set [1], the “Molar enthalpy of transition or fusion” value stood at 5.23 ± 0.234 kcal/mol. The molar enthalpy in data set [2] came to 34.2 ± 1.43 kcal/mol. Moreover, the Triple point temperature in data set [3] came to 345.9 ± 0.5 K.
